In general, IC50 refers to the midpoint of a concentration-inhibition curve. Low values mean inhibition by little substance, high ones a need for much substance.

Experimental findings from patent US20190046507A1, “COMPOUNDS FOR THE TREATMENT OF MALARIA” (Merck Sharp & Dohme Corp., priority 2016, published 2019) are described below.

In the assay the test system is asexual P. falciparum 3D7 parasites. The assay can be described thus: P. falciparum 3D7 growth inhibition assay with LDH activity readout (Assay 1). The conditions noted are these: Plasmodium falciparum; 3D7 strain, 72 h incubation, LDH activity read by absorbance at 650 nm. The assay is classed as cell-based. The protocol: A modified version of the assay described in Gamo, F. J., Sanz, L. M., Vidal, J., de Cozar, C., Alvarez, E., Lavandera, J. L., Vanderwall, D. E., Green, D. V., Kumar, V., Hasan, S., Brown, J. R., Peishoff, C. E., Cardon, L. R., Garcia-Bustos, J. F., Nature, 465 (2010) 305-310 (Gamo et al.) was used to assess the activity of compounds against asexual P. falciparum 3D7 parasites. Compounds were pre-dispensed in 384-well plates, RPMI/AlbuMAX growth media was added and P. falciparum inoculated. Plates were incubated for 72 h and then frozen at −80° C. overnight. LDH activity was quantified with the modified cofactor 3-acetylpyridine adenine dinucleotide (APAD) (Sigma Aldrich) by measuring absorbance of the tetrazolium indicator nitro blue tetrazolium (NBT) (Sigma Aldrich) at 650 nm.
An inoculum of synchronous P. falciparum (3D7 strain) parasitized red blood cells (PRBC) at 0.7% parasitaemia and 2% haematocrit in RPMI-1640, 5% AlbuMAX, 2% D-sucrose, 0.3% glutamine and 150 μM hypoxanthine was used for the assay.
Compound master plates (384-well) were prepared by a 10 pt serial dilution of compounds, from 1 mM to 50.8 nM, in columns 3-12 and 13-22. DMSO was dispensed into columns 1 and 23 of the compound master plate to be used as the positive growth control (100% viability). […] Intermediate compound dilution plates were prepared by dispensing 1 μl from each well of the compound master plate into 11.5 μl of RPMI/AlbuMAX growth media. Duplicate assay plates (384-well) were then prepared by dispensing 0.5 μL of compound from the intermediate dilution plates into 9.5 μl of RPMI/AlbuMAX growth media. The parasite inoculum (30 μL) was dispensed into the assay plates containing compounds using a Multidrop dispenser (Thermo Scientific) such that the final assay volume was 40 μL and final compound concentration was 1 μM-0.05 nM (the volume of compound addition can be adjusted to the preferred and agreed screening concentration). The final DMSO concentration was 0.1% (ideally 0.2% to limit toxicity to parasites), but this is dependent on volume of compound DMSO stock solution that can be supplied. Plates were incubated at 37° C. for 72 h in an atmosphere of 5% CO2, 5% O2, […].
After 72 h of incubation, plates were frozen at −80° C. overnight and then thawed at room temperature for at least 4 h. To evaluate LDH activity, 45 μL of freshly made reaction mix (174 mM sodium L-lactate (Sigma Aldrich), 214 μM 3-acetyl pyridine adenine dinucleotide (APAD) (Sigma Aldrich), 270 μM nitro blue tetrazolium chloride (NBT) (Sigma Aldrich), 4.35 U/mL diaphorase (from Clostridium kluyveri) (Sigma Aldrich), 0.7% Tween 20, 100 mM Tris-HCl pH 7.5) was dispensed using a Multidrop dispenser (Thermo Scientific). Plates were shaken to ensure mixing and absorbance at 650 nm was monitored using a Perkin Elmer Envision plate reader after 30 min of incubation at room temperature. Data were normalized to percent growth inhibition using positive and negative controls, and analysed using TIBCO Spotfire software. […]
In turn, `CC(=O)N1CCN(C(=O)c2cc(F)cc(CN3C(=N)NC(c4ccccc4)(c4ccccc4)C3=O)c2)CC1` [Compound 1] yielded a half-inhibitory concentration (IC50) of 4.5 nM.

`N=C1NC(C[C@@H]2CCCO2)(c2ccccc2)C(=O)N1Cc1ccc(C(F)(F)F)c(C(=O)N2Cc3nccnc3C2)c1` (stereo partly shown) [Compound 2] registered an IC50 of 5.8 nM.

In the case of `CC(C)CC[C@]1(c2ccccc2)NC(=N)N(Cc2ccc(C(F)(F)F)c(C(=O)N3CC(O)C(F)C3)c2)C1=O` (stereo partly shown) [Compound 3], the IC50 is 9.6 nM.

In turn, `N=C1NC(c2ccc(F)cc2)(C2CCCCC2)C(=O)N1Cc1ccc(C(F)(F)F)c(C(=O)N2Cc3nccnc3C2)c1` (stereo not shown) [Compound 4] came in with a concentration for half-maximal inhibition (IC50) of 9.7 nM.

`CC(C)CC[C@]1(c2ccccc2)NC(=N)N(Cc2ccc(C(C)(C)C)c(C(=O)N3CCn4ccnc4C3)c2)C1=O` [Compound 5] registered an IC50 of 21.2 nM.

`CC(C)CC[C@]1(c2ccccc2)NC(=N)N([C@@H]2CCc3ccc(C(=O)N4Cc5nccnc5C4)cc32)C1=O` [Compound 6] displayed an IC50 of 21.8 nM.

Molecule `CC(C)CC[C@]1(c2ccccc2)NC(=N)N(Cc2ccc(C(C)(C)C)c(C(=O)N(C)C(C)c3ccncc3)c2)C1=O` (stereo partly shown) [Compound 7] had a concentration for half-maximal inhibition (IC50) of 25.1 nM.

In the case of `CC(C)CC[C@]1(c2ccccc2)NC(=N)N(Cc2ccc(C(C)(C)C)c(C(=O)N3CCOC[C@@H]3C)c2)C1=O` [Compound 8], inhibition was half-maximal at 56.6 nM (IC50).

`Cc1ccc([C@@]2(CC3CC3)NC(=N)N(Cc3ccc(C(C)(C)C)c(C(=O)N4CCC(C)(C)C4)c3)C2=O)cc1` [Compound 9] came in with an IC50 of 86.6 nM.

With `CC(C)CC[C@]1(c2ccccc2)NC(=N)N(Cc2ccc(C(C)(C)C)c(C(=O)N(C)Cc3ccon3)c2)C1=O` [Compound 10], the IC50 was 120 nM.

As to `CC(C)CC[C@]1(c2ccccc2)NC(=N)N(Cc2ccc(C(C)(C)C)c(C(=O)NCc3cccnc3)c2)C1=O` [Compound 11], it took 172 nM to reach half-maximal inhibition (IC50).

As for `Cc1ccc(C2(C3CCCCC3)NC(=N)N(Cc3ccc(C(C)(C)C)c(C(=O)N4Cc5ccccc5C4)c3)C2=O)cc1` (stereo not shown) [Compound 12], 221 nM corresponded to half-maximal inhibition (IC50).

For `Cc1ccc(C2(c3ccc(C)cc3)NC(=N)N(Cc3ccc(C(C)(C)C)c(C(=O)N4Cc5nccnc5C4)c3)C2=O)cc1` [Compound 13], the IC50 amounted to 223 nM.

In the case of `Cc1ccc(C2(CCC(C)C)NC(=N)N(Cc3ccc(C(C)(C)C)c(C(=O)N4Cc5cncnc5C4)c3)C2=O)cc1` (stereo not shown) [Compound 14], the concentration for half-maximal inhibition (IC50) was 225 nM.

`CC(C)(C)c1ccc(CN2C(=N)NC(c3ccccc3)(c3ccccc3)C2=O)cc1C(=O)N1Cc2nccnc2C1` [Compound 15]: half-maximal inhibition (IC50) was put at 239 nM.

As for `Cc1ccc(CN2C(=N)NC(CC(C)C)(c3ccccc3)C2=O)cc1C(=O)NC1CC1` (stereo not shown) [Compound 16], 240 nM corresponded to half-maximal inhibition (IC50).

As to `CC(C)CC[C@]1(c2ccccc2)NC(=N)N(Cc2ccc(C(C)(C)C)c(C(=O)N(C)Cc3noc(C4CC4)n3)c2)C1=O` [Compound 17], the IC50 was 310 nM.

For the molecule `CCOC(=O)NC1CCN(C(=O)c2cc(C)cc(CN3C(=N)NC(c4ccccc4)(c4ccccc4)C3=O)c2)CC1` [Compound 18], half-maximal inhibition (IC50) required 313 nM.

For `Cc1cc(CN2C(=N)NC(c3ccccc3)(c3ccccc3)C2=O)cc(C(=O)N2CCNC(=O)C2)c1` [Compound 20], the IC50 is 356 nM.
